# From patent US20210254056A1, “IDENTIFICATION AND TARGETED MODULATION OF GENE SIGNALING NETWORKS” (CAMP4 THERAPEUTICS CORPORATION, priority 2017, published 2021)
# Test system: hepatocytes
# Assay: RNA-seq of hepatocytes treated with Phase III failure compounds
# Conditions: for significant modulation of expression of disease genes / Number (#) of genes having significantly changed expression / significant modulation of expression of any of the genes analyzed: RNA-seq; for significant modulation of expression of disease genes: q≤0.05, genes in the value or listed in the block; for Number (#) of genes having significantly changed expression: Phase III failure compounds, significance: FPKM≥0.5, log 2(fold-change)≥1, q-value≥0.05 (so in the source); for significant modulation of expression of any of the genes analyzed: p≤0.05; for significant changes in gene expression: RNA-seq of Table 36, FPKM≥0.5, log 2(fold-change)≥1, q-value≤0.05
# Experimental: RNA-seq was performed to determine the effects of the compounds on hepatocytes.
# Significance was determined by the criteria of FPKM≥0.5, a log 2(fold-change)≥1, and a […].
smiles,measurement,setting,value
O=P(O)(NCCCl)NCCCl [Palifosfamide],significant modulation of expression of disease genes,hepatocytes,significantly (q≤0.05) modulate expression of RMRP and FAM111B
same,RNA-seq results: A1BG expression,"gene A1BG, hepatocytes",−0.13
same,RNA-seq results: AGTR1 expression,"gene AGTR1, hepatocytes",−0.67
same,RNA-seq results: AGXT expression,"gene AGXT, hepatocytes",0.30
same,RNA-seq results: AHI1 expression,"gene AHI1, hepatocytes",0.06
same,RNA-seq results: AMPD3 expression,"gene AMPD3, hepatocytes",−0.01
same,RNA-seq results: AMT expression,"gene AMT, hepatocytes",0.13
same,RNA-seq results: ANGPTL3 expression,"gene ANGPTL3, hepatocytes",−0.28
same,RNA-seq results: ANKS4B expression,"gene ANKS4B, hepatocytes",−0.16
same,RNA-seq results: ANKS6 expression,"gene ANKS6, hepatocytes",0.12
same,RNA-seq results: ANPEP expression,"gene ANPEP, hepatocytes",−0.12
same,RNA-seq results: AOC2 expression,"gene AOC2, hepatocytes",0.34
same,RNA-seq results: APOA2 expression,"gene APOA2, hepatocytes",−0.53
same,RNA-seq results: APOA5 expression,"gene APOA5, hepatocytes",0.00
same,RNA-seq results: APOB expression,"gene APOB, hepatocytes",−0.23
same,RNA-seq results: COG5 expression,"gene COG5, hepatocytes",−0.03
same,RNA-seq results: COG6 expression,"gene COG6, hepatocytes",0.08
same,RNA-seq results: COL1A1 expression,"gene COL1A1, hepatocytes",0.48
same,RNA-seq results: COX6A1 expression,"gene COX6A1, hepatocytes",−0.07
same,RNA-seq results: CP expression,"gene CP, hepatocytes",0.16
same,RNA-seq results: CPS1 expression,"gene CPS1, hepatocytes",0.84
same,RNA-seq results: CPT1A expression,"gene CPT1A, hepatocytes",1.06
same,RNA-seq results: CPT2 expression,"gene CPT2, hepatocytes",0.33
same,RNA-seq results: CROT expression,"gene CROT, hepatocytes",−0.69
same,RNA-seq results: CSPP1 expression,"gene CSPP1, hepatocytes",0.17
same,RNA-seq results: CTC1 expression,"gene CTC1, hepatocytes",0.2
same,RNA-seq results: CTDSP2 expression,"gene CTDSP2, hepatocytes",0.56
same,RNA-seq results: CTH expression,"gene CTH, hepatocytes",1.87
same,RNA-seq results: CTNS expression,"gene CTNS, hepatocytes",0.42
same,RNA-seq results: CTSF expression,"gene CTSF, hepatocytes",0.68
same,RNA-seq results: CTSK expression,"gene CTSK, hepatocytes",−0.49
same,RNA-seq results: CYB5A expression,"gene CYB5A, hepatocytes",0.43
same,RNA-seq results: CYB5R3 expression,"gene CYB5R3, hepatocytes",0.05
same,"RNA-seq results, CYP2B6 expression","gene CYP2B6, hepatocytes",0.03
same,RNA-seq results: CYP2B6 expression,"gene CYP2B6, hepatocytes",0.58
same,"RNA-seq results, CYP2C19 expression","gene CYP2C19, hepatocytes",0.12
same,RNA-seq results: CYP2C19 expression,"gene CYP2C19, hepatocytes",0.2
same,"RNA-seq results, CYP2D6 expression","gene CYP2D6, hepatocytes",0.10
same,RNA-seq results: CYP2D6 expression,"gene CYP2D6, hepatocytes",0.47
same,"RNA-seq results, CYP3A4 expression","gene CYP3A4, hepatocytes",−0.49
same,RNA-seq results: CYP3A4 expression,"gene CYP3A4, hepatocytes",2.11
same,"RNA-seq results, CYP7B1 expression","gene CYP7B1, hepatocytes",−0.21
same,RNA-seq results: CYP7B1 expression,"gene CYP7B1, hepatocytes",0.28
same,RNA-seq results: CYP27A1 expression,"gene CYP27A1, hepatocytes",0.51
same,"RNA-seq results, CYP39A1 expression","gene CYP39A1, hepatocytes",−0.43
same,RNA-seq results: CYP39A1 expression,"gene CYP39A1, hepatocytes",0.62
same,RNA-seq results: DAO expression,"gene DAO, hepatocytes",−1.2
same,RNA-seq results: DBT expression,"gene DBT, hepatocytes",−0.43
same,RNA-seq results: DCDC2 expression,"gene DCDC2, hepatocytes",−2.5
same,RNA-seq results: DCXR expression,"gene DCXR, hepatocytes",−0.23
same,RNA-seq results: FABP1 expression,"gene FABP1, hepatocytes",−0.17
same,RNA-seq results: FADD expression,"gene FADD, hepatocytes",−0.29
same,RNA-seq results: FAM111A expression,"gene FAM111A, hepatocytes",−0.05
same,RNA-seq results: FAM111B expression,"gene FAM111B, hepatocytes",−2.02
same,RNA-seq results: FAN1 expression,"gene FAN1, hepatocytes",−0.36
same,RNA-seq results: FARS2 expression,"gene FARS2, hepatocytes",−0.34
same,RNA-seq results: FASLG expression,"gene FASLG, hepatocytes",−1.44
same,RNA-seq results: FGA expression,"gene FGA, hepatocytes",0.12
same,RNA-seq results: FGD1 expression,"gene FGD1, hepatocytes",−0.27
same,RNA-seq results: FGFR2 expression,"gene FGFR2, hepatocytes",−0.22
same,RNA-seq results: FIG4 expression,"gene FIG4, hepatocytes",0.06
same,RNA-seq results: FIS1 expression,"gene FIS1, hepatocytes",−0.18
same,RNA-seq results: FTCD expression,"gene FTCD, hepatocytes",0.32
same,RNA-seq results: FTH1 expression,"gene FTH1, hepatocytes",0.48
same,RNA-seq results: FUCA1 expression,"gene FUCA1, hepatocytes",0.24
same,RNA-seq results: FXN expression,"gene FXN, hepatocytes",−0.02
same,RNA-seq results: G6PC3 expression,"gene G6PC3, hepatocytes",−0.25
same,RNA-seq results: G6PC expression,"gene G6PC, hepatocytes",3.27
same,RNA-seq results: G6PD expression,"gene G6PD, hepatocytes",0.13
same,RNA-seq results: GALK1 expression,"gene GALK1, hepatocytes",−0.37
same,RNA-seq results: GALK2 expression,"gene GALK2, hepatocytes",−0.25
same,RNA-seq results: GALT expression,"gene GALT, hepatocytes",0.41
same,RNA-seq results: GATA6 expression,"gene GATA6, hepatocytes",0.11
same,RNA-seq results: GATM expression,"gene GATM, hepatocytes",−0.46
same,RNA-seq results: GBA expression,"gene GBA, hepatocytes",−0.11
same,RNA-seq results: GBE1 expression,"gene GBE1, hepatocytes",0.2
same,RNA-seq results: GCH1 expression,"gene GCH1, hepatocytes",−0.38
same,RNA-seq results: GCKR expression,"gene GCKR, hepatocytes",−0.08
same,RNA-seq results: GCLC expression,"gene GCLC, hepatocytes",0.14
same,RNA-seq results: GOSH expression,"gene GOSH, hepatocytes",−0.4
same,RNA-seq results: RRM2B,"gene RRM2B, hepatocytes",−0.21
same,RNA-seq results: RSAD1,"gene RSAD1, hepatocytes",0.12
same,RNA-seq results: SAMHD1,"gene SAMHD1, hepatocytes",−0.34
same,RNA-seq results: SC5D,"gene SC5D, hepatocytes",−0.37
same,RNA-seq results: SCARB1,"gene SCARB1, hepatocytes",0.05
same,RNA-seq results: SCN9A,"gene SCN9A, hepatocytes",−0.07
same,RNA-seq results: SDCCAG8,"gene SDCCAG8, hepatocytes",−0.12
same,RNA-seq results: SEPN1,"gene SEPN1, hepatocytes",0.00
same,RNA-seq results: SERAC1,"gene SERAC1, hepatocytes",−0.07
same,RNA-seq results: SERPINA1,"gene SERPINA1, hepatocytes",−0.19
same,RNA-seq results: SERPING1,"gene SERPING1, hepatocytes",−0.31
same,RNA-seq results: SERPINI1,"gene SERPINI1, hepatocytes",−0.28
same,RNA-seq results: SETBP1,"gene SETBP1, hepatocytes",0.11
same,RNA-seq results: SFXN4,"gene SFXN4, hepatocytes",−0.14
same,RNA-seq results: SLC10A1,"gene SLC10A1, hepatocytes",−0.40
same,RNA-seq results: SLC10A3,"gene SLC10A3, hepatocytes",0.53
same,RNA-seq results: SLC10A5,"gene SLC10A5, hepatocytes",−0.06
same,RNA-seq results: SLC10A7,"gene SLC10A7, hepatocytes",−0.46
same,RNA-seq results: SLC11A2,"gene SLC11A2, hepatocytes",−0.01
same,RNA-seq results: SLC19A1,"gene SLC19A1, hepatocytes",−0.10
same,RNA-seq results: SLC19A2,"gene SLC19A2, hepatocytes",−0.05
same,RNA-seq results: SLC19A3,"gene SLC19A3, hepatocytes",−0.26
same,RNA-seq results: SLC22A1,"gene SLC22A1, hepatocytes",−0.18
same,RNA-seq results: SLC22A5,"gene SLC22A5, hepatocytes",0.03
same,RNA-seq results: SLC25A1,"gene SLC25A1, hepatocytes",0.36
same,RNA-seq results: SLC25A10,"gene SLC25A10, hepatocytes",0.09
same,RNA-seq results: SLC25A12,"gene SLC25A12, hepatocytes",0.10
same,RNA-seq results: SLC25A13,"gene SLC25A13, hepatocytes",−0.06
same,RNA-seq results: SLC25A15,"gene SLC25A15, hepatocytes",0.04
same,RNA-seq results: SLC25A19,"gene SLC25A19, hepatocytes",−0.02
same,RNA-seq results: SLC25A20,"gene SLC25A20, hepatocytes",−0.21
same,RNA-seq results: SLC25A29,"gene SLC25A29, hepatocytes",0.39
same,RNA-seq results: SLC25A32,"gene SLC25A32, hepatocytes",−0.19
CCC(CC)[C@H](NC(C)=O)[C@@H]1[C@H](O)[C@@H](C(=O)O)C[C@H]1N=C(N)N [Peramivir],Number (#) of genes having significantly changed expression,hepatocytes,23
"CCCCCCCCCCCCCCCCCCOP(=O)([O-])OC1CC[N+](C)(C)CC1 [Perifosine (KRX-0401), Perifosine]",significant modulation of expression of any of the genes analyzed,hepatocytes,not observed to significantly modulate expression
CSCC[C@H](N)C(=O)N[C@@]1(C(=O)O)CS(=O)(=O)[C@H]2[C@H](C(=O)O)[C@H]21 [Pomaglumetad methionil],significant changes in gene expression,,not observed to cause any significant changes in gene expression
same,significant modulation of expression of any of the genes analyzed,hepatocytes,not observed to significantly modulate expression
COCCOc1ccc(N2CCN(CCn3ncc4c3nc(N)n3nc(-c5ccco5)nc43)CC2)cc1 [Preladenant],Number (#) of genes having significantly changed expression,hepatocytes,317
same,significant modulation of expression of disease genes,hepatocytes,significantly (q≤0.05) modulate expression
same,"B2M expression, RNA-seq result","gene B2M, hepatocytes",0.09
same,"B9D2 expression, RNA-seq result","gene B9D2, hepatocytes",−0.56
same,"BAAT expression, RNA-seq result","gene BAAT, hepatocytes",−0.58
same,"BBOX1 expression, RNA-seq result","gene BBOX1, hepatocytes",−0.56
same,"BBS10 expression, RNA-seq result","gene BBS10, hepatocytes",−0.21
same,"BCHE expression, RNA-seq result","gene BCHE, hepatocytes",−0.63
same,"BCKDHB expression, RNA-seq result","gene BCKDHB, hepatocytes",−0.78
same,"BCKDK expression, RNA-seq result","gene BCKDK, hepatocytes",−0.48
same,"BCO1 expression, RNA-seq result","gene BCO1, hepatocytes",−1.07
same,"BCR expression, RNA-seq result","gene BCR, hepatocytes",−0.62
same,"BLNK expression, RNA-seq result","gene BLNK, hepatocytes",0.53
same,"BLOC1S3 expression, RNA-seq result","gene BLOC1S3, hepatocytes",0.3
same,"BMPR1A expression, RNA-seq result","gene BMPR1A, hepatocytes",0.11
same,"BRAF expression, RNA-seq result","gene BRAF, hepatocytes",0.46
same,"BSCL2 expression, RNA-seq result","gene BSCL2, hepatocytes",−0.26
same,"BTD expression, RNA-seq result","gene BTD, hepatocytes",−0.16
same,"C4A expression, RNA-seq result","gene C4A, hepatocytes",0.16
same,"C9 expression, RNA-seq result","gene C9, hepatocytes",−0.38
same,"C10orf10 expression, RNA-seq result","gene C10orf10, hepatocytes",0.14
same,"C10orf11 expression, RNA-seq result","gene C10orf11, hepatocytes",−0.32
same,"C15orf41 expression, RNA-seq result","gene C15orf41, hepatocytes",−0.17
same,"CA2 expression, RNA-seq result","gene CA2, hepatocytes",0.76
same,"CA5A expression, RNA-seq result","gene CA5A, hepatocytes",−0.56
same,"CA12 expression, RNA-seq result","gene CA12, hepatocytes",0.43
same,"CAV1 expression, RNA-seq result","gene CAV1, hepatocytes",−0.02
same,"CCND1 expression, RNA-seq result","gene CCND1, hepatocytes",−0.89
same,"CD46 expression, RNA-seq result","gene CD46, hepatocytes",0.34
same,"CD81 expression, RNA-seq result","gene CD81, hepatocytes",−0.26
same,"CD320 expression, RNA-seq result","gene CD320, hepatocytes",−0.95
same,"CDAN1 expression, RNA-seq result","gene CDAN1, hepatocytes",−0.32
same,"CDH1 expression, RNA-seq result","gene CDH1, hepatocytes",−0.29
same,"CEP19 expression, RNA-seq result","gene CEP19, hepatocytes",−0.54
same,"CEP83 expression, RNA-seq result","gene CEP83, hepatocytes",0.05
same,"CEP164 expression, RNA-seq result","gene CEP164, hepatocytes",−0.48
same,"CEP290 expression, RNA-seq result","gene CEP290, hepatocytes",0.41
same,"CFB expression, RNA-seq result","gene CFB, hepatocytes",0.26
same,"CFHR2 expression, RNA-seq result","gene CFHR2, hepatocytes",−0.22
same,"CHRM3 expression, RNA-seq result","gene CHRM3, hepatocytes",0.06
same,"CIDEC expression, RNA-seq result","gene CIDEC, hepatocytes",−1.38
same,"CLDN1 expression, RNA-seq result","gene CLDN1, hepatocytes",−0.26
same,"COG1 expression, RNA-seq result","gene COG1, hepatocytes",−0.08
"CCCn1c(=O)c2[nH]c(C34CC5CC(CC3C5)C4)nc2n(CCC)c1=O [Rolofylline (KW-3902), Rolofylline]",significant changes in gene expression,,not observed to cause any significant changes in gene expression
same,significant modulation of expression of any of the genes analyzed,hepatocytes,not observed to significantly modulate expression
